Results as given in ChEMBL document CHEMBL4819029, “Biflavanones, Chalconoids, and Flavonoid Analogues from the Stem Bark of Ochna holstii” (J Nat Prod, 2021).
In brackets after ≈: the same amount, converted by molar mass. Activity calls are given as the source filed them. No cut-off for these calls is given here.

What was measured:
Bacillus subtilis = experiment: Antibacterial activity against Bacillus subtilis incubated for 24 hrs by resazurin based assay; assay type: functional
Escherichia coli = experiment: Antibacterial activity against Escherichia coli incubated for 24 hrs by resazurin based assay; assay type: functional, organism-based
MCF7 = experiment: Cytotoxicity against human MCF7 cells assessed as reduction in cell viability after 24 hrs by PrestoBlue dye based fluorescence assay; assay type: functional; conditions: MCF7, 24 h

Row | Compound | MIC (Bacillus subtilis) | Activity (Escherichia coli) | EC50 (MCF7)
1 | COc1cc(O)c2c(c1)OC(c1ccc(O)cc1)C(C1C(=O)c3c(O)cc(OC)cc3OC1c1ccc(O)cc1)C2=O (stereo not drawn) | > 250 µM | – | –
2 | COc1ccc([C@H]2Oc3cc(OC)cc(O)c3C(=O)[C@@H]2[C@H]2C(=O)c3c(O)cc(OC)cc3O[C@@H]2c2ccc(O)cc2)cc1 | > 250 µM | – | –
3 | O=C(/C=C/c1ccc(O)c(Oc2ccc(CCC(=O)c3ccc(O)cc3O)cc2)c1)c1ccc(O)cc1O | > 250 µM | – | –
4 | O=C(c1ccc(O)cc1O)[C@H]1[C@H](C(=O)c2ccc(O)cc2O)[C@H](c2ccc(O)cc2)O[C@@H]1c1ccc(O)cc1 | > 250 µM | inactive | 24 µM
5 | O=C1c2ccc(O)cc2O[C@@H](c2ccc(O)cc2)[C@@H]1[C@@H]1C(=O)c2ccc(O)cc2O[C@H]1c1ccc(O)cc1 | > 250 µM | – | –
6 | COc1cc(O)c2c(c1)O[C@@H](c1ccc(O)cc1)[C@H]([C@@H]1C(=O)c3ccc(O)cc3O[C@H]1c1ccc(O)cc1)C2=O | 14 µM (≈ 7.57 µg/mL) | – | –
